Source: patent publication US7462639B2, “Aminopyrazole derivatives” (Hoffmann-La Roche Inc., priority 2005, dated 2008)
pIC50: −log10 of the molar value.

Biological target: T1, Aurora A kinase (Homo sapiens, UniProt O14965)
T1 sequence (O14965 1-403): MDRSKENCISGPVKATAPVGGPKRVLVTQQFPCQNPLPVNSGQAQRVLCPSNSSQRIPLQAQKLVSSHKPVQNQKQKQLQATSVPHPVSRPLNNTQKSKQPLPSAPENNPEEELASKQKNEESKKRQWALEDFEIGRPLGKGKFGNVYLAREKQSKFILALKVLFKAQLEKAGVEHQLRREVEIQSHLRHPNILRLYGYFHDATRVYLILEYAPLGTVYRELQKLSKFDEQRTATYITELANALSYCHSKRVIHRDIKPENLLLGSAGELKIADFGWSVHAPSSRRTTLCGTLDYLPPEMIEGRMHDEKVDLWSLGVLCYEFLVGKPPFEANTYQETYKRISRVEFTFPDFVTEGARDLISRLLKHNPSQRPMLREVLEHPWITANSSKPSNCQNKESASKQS
Experiment: IC50 determination for inhibitors of Aurora A (ELISA-type kinase assay)
Assay type: biochemical
Conditions: GST-Histone H3 substrate, mutant Aurora A kinase, 30 μM ATP, 40 minutes, read-out: IC50 Aurora A kinase inhibition
Description: Aurora A is a serine threonine kinase involved in spindle assembly and chromosome segregation. The assay is a typically ELISA-type assay where substrate (GST-Histone H3) is coupled to the assay-plate and is phosphorylated by the kinase. Phosphorylation is detected by a mouse anti-Phosphopeptid mAb and an HRP-labeled anti-mouse pAb. The assay is validated for IC50-determination.
Kinase activities were measured by Enzyme-Linked Immunosorbent Assay (ELISA): Maxisorp 384-well plates (Nunc) were coated with recombinant fusion protein comprising residues 1-15 of HistoneH3 fused to the N-terminus of Glutathione-S-Transferase. Plates were then blocked with a solution of 1 mg/mL I-block (a highly purified form of casein, Tropix cat. no. T2015) in phosphate-buffered saline. Kinase reactions were carried out in the wells of the ELISA plate by combining an appropriate amount of mutant Aurora A kinase with test compound and 30 μM ATP. The reaction buffer was 10× Kinase Buffer (Cell Signaling cat. no. 9802) supplemented with 1 μg/mL I-block. Reactions were stopped after 40 minutes by addition of 25 mM EDTA. After washing, substrate phosphorylation was detected by addition of anti-phospho-Histone H3 (Ser 10) 6G3 mAb (Cell Signaling cat. no. 9706) and sheep anti-mouse pAb-HRP (Amersham cat# NA931V), followed by colorimetric development with TMB (3,3′,5,5′-tetramethylbenzidine from Kirkegaard & Perry Laboratories). After readout of the adsorbance, IC50 values were calculated using a non-linear curve fit (XLfit software (ID Business Solution Ltd., Guilford, Surrey, UK)).

Row | pIC50 | Structure (SMILES)
1 | 9.00 | CCN(CC)C(=O)Nc1c[nH]nc1-c1nc2cc3c(cc2[nH]1)C(C)(C)C(=O)N3CC [Example E-8, 1,1-Diethyl-3-[3-(5-ethyl-7,7-dimethyl-6-oxo-1,5,6,7-tetrahydro-imidazo[4,5-f]indol-2-yl)-1H-pyrazol-4-yl]-urea]
2 | 7.49 | CCN1C(=O)C(C)(C)c2cc3[nH]c(-c4n[nH]c(C)c4NCc4ccccc4)nc3cc21 [Example G-2, 2-(4-Benzylamino-5-methyl-1H-pyrazol-3-yl)-5-ethyl-7,7-dimethyl-5,7-dihydro-1H-imidazo[4,5-f]indol-6-one]
3 | 7.72 | CCN1C(=O)C(C)(C)c2cc3[nH]c(-c4n[nH]cc4NC(=O)OCc4ccccc4)nc3cc21 [Example E-5, [3-(5-Ethyl-7,7-dimethyl-6-oxo-1,5,6,7-tetrahydro-imidazo[4,5-f]indol-2-yl)-1H-pyrazol-4-yl]-carbamic acid benzyl ester]
4 | 7.96 | CCN1C(=O)C(C)(C)c2cc3[nH]c(-c4n[nH]cc4NC(=O)N4CCC(OC)CC4)nc3cc21 [Example F-6]
5 | 7.62 | CCN1C(=O)C(C)(C)c2cc3nc(-c4n[nH]cc4NS(C)(=O)=O)[nH]c3cc21 [Example H-2, N-[3-(5-Ethyl-7,7-dimethyl-6-oxo-3,5,6,7-tetrahydro-imidazo[4,5-f]indol-2-yl)-1H-pyrazol-4-yl]-methanesulfonamide]

Continued, compound first:

Row | Structure (SMILES) | pIC50
6 | CCN1C(=O)C(C)(C)c2cc3[nH]c(-c4n[nH]cc4NC(=O)c4cnccn4)nc3cc21 [Example C-11, Pyrazine-2-carboxylic acid[3-(5-ethyl-7,7-dimethyl-6-oxo-1,5,6,7-tetrahydro-imidazo[4,5-f]indol-2-yl)-1H-pyrazol-4-yl]-amide] | 8.52
7 | CCN1C(=O)C(C)(C)c2cc3[nH]c(-c4n[nH]cc4NC(=O)CC(C)C)nc3cc21 [Example B-20, N-[3-(5-Ethyl-7,7-dimethyl-6-oxo-1,5,6,7-tetrahydro-imidazo[4,5-f]indol-2-yl)-1H-pyrazol-4-yl]-3-methyl-butyramide] | 8.70
8 | CCN1C(=O)C(C)(C)c2cc3[nH]c(-c4n[nH]cc4NC(=O)C(F)(F)F)nc3cc21 [Example A-5, N-[3-(5-Ethyl-7,7-dimethyl-6-oxo-1,5,6,7-tetrahydro-imidazo[4,5-f]indol-2-yl)-1H-pyrazol-4-yl]-2,2,2-trifluoro-acetamide] | 7.54

Test system: HCT 116 cells
Experiment: Viability assay in HCT 116 cells (CellTiter-Glo)
Assay type: cell-based
Conditions: 120 h; HCT 116 human colon carcinoma cells, 5 days incubation, ATP luminescence readout
Description: A viability assay was performed using the CellTiter-Glo® Luminescent Cell Viability Assay (see Promega Corporation's Technical Bulletin No. 288, pp. 1-11 [revised 2/04] which is hereby incorporated by reference in its entirety). This assay is a homogeneous method of determining the number of viable cells in culture based on quantitation of the ATP present, an indicator of metabolically active cells. The assay is designed for use with multiwell formats, making it ideal for automated high-throughput screening (HTS), cell proliferation and cytotoxicity assays. The homogeneous assay procedure involves adding a single reagent (containing luciferase, luciferan substrate, and buffer) directly to cells cultured in serum-supplemented medium. Cell washing, removal of medium and multiple pipetting steps are not required. The system detects as few as 15 cells/well in a 384-well format in 10 minutes after adding reagent and mixing.
The homogeneous “add-mix-measure” format results in cell lysis and generation of a luminescent signal proportional to the amount of ATP present. The amount of ATP is directly proportional to the number of cells present in culture. The above-referenced assay generates a “glow-type” luminescent signal, produced by the luciferase reaction, which has a half-life generally greater than five hours, depending on cell type and medium used. The extended half-life eliminates the need to use reagent injectors and provides flexibility for continuous or batch mode processing of multiple plates. The unique homogeneous format avoids errors that may be introduced by other ATP measurement methods that require multiple steps.
HCT 116 cells (human colon carcinoma, ATCC-No. CCl-247) were cultivated in RPMI 1640 medium with GlutaMAX™ I (cell culture media that contains L-Alanyl-L-Glutamine [a stabilized a form/source of L-Glutamine] from Invitrogen, Cat-No. 61870-010), 2.5% Fetal Calf Serum (FCS, Sigma Cat-No. F4135 (FBS)); 100 Units/ml penicillin/100 μg/ml streptomycin (=Pen/Strep from Invitrogen Cat. No. 15140). For the assay the cells were seeded in 384 well plates, 1000 cells per well, in the same medium. The next day the test compounds were added in various concentrations ranging from 30 μM to 0.0015 μM (10 concentrations, 1:3 diluted). After 5 days the viability assay was done according to the instructions of the manufacturer. In brief: the cell-plate was equilibrated to room temperature for approximately 30 minutes and then reagent (containing luciferase, luciferan substrate, and buffer) was added. The contents were carefully mixed for 15 minutes to induce cell lysis. After 45 minutes the luminescent signal was measured in Victor 2, (scanning multiwell spectrophotometer, Wallac).
Medium: RPMI 1640 with cell culture media containing L-Alanyl-L-Glutamine [GlutaMAX™ I (Invitrogen, Cat-No. 61870)], 5% FCS (Sigma Cat.-No. F4135), Pen/Strep (Invitrogen, Cat No. 15140).
HCT116 (ATCC-No. CCl-247): 1000 cells in 60 μl per well of 384 well plate (Greiner 781098, μClear-plate white)
After seeding incubate plates 24 h at 37° C., 5% CO2
2nd. Day: Induction (Treatment with Compounds, 10 Concentrations):
In order to achieve a final concentration of 30 μM as highest concentration […] of 10 mM compound stock solution were added directly to […] media. Then step d) of the dilution procedure described below, was followed. […]

Row | pIC50 | Structure (SMILES)
9 | 6.42 | CCN1C(=O)C(C)(C)c2cc3[nH]c(-c4n[nH]cc4NC(=O)OC)nc3cc21 [Example E-6, [3-(5-Ethyl-7,7-dimethyl-6-oxo-1,5,6,7-tetrahydro-imidazo[4,5-f]indol-2-yl)-1H-pyrazol-4-yl]-carbamic acid methyl ester]
10 | 7.55 | CCN(CCN(C)C)C(=O)Nc1c[nH]nc1-c1nc2cc3c(cc2[nH]1)C(C)(C)C(=O)N3CC [Example F-4, 1-(2-Dimethylamino-ethyl)-1-ethyl-3-[3-(5-ethyl-7,7-dimethyl-6-oxo-1,5,6,7-tetrahydro-imidazo[4,5-f]indol-2-yl)-1H-pyrazol-4-yl]-urea]
11 | 7.21 | CCN1C(=O)C(C)(C)c2cc3[nH]c(-c4n[nH]cc4NC(=O)N(C)C)nc3cc21 [Example E-10, 3-[3-(5-Ethyl-7,7-dimethyl-6-oxo-1,5,6,7-tetrahydro-imidazo[4,5-f]indol-2-yl)-1H-pyrazol-4-yl]-1,1-dimethyl-urea]

The next lines start with the compound.

Row | Structure (SMILES) | pIC50
12 | CCN1C(=O)C(C)(C)c2cc3[nH]c(-c4n[nH]cc4NC(=O)COC)nc3cc21 [Example B-22, N-[3-(5-Ethyl-7,7-dimethyl-6-oxo-1,5,6,7-tetrahydro-imidazo[4,5-f]indol-2-yl)-1H-pyrazol-4-yl]-2-methoxy-acetamide] | 7.00
13 | CCN1C(=O)C(C)(C)c2cc3[nH]c(-c4n[nH]cc4NC(=O)c4cccnc4)nc3cc21 [Example B-3, N-[3-(5-Ethyl-7,7-dimethyl-6-oxo-1,5,6,7-tetrahydro-imidazo[4,5-f]indol-2-yl)-1H-pyrazol-4-yl]-nicotinamide] | 7.24
14 | CCN1C(=O)C(C)(C)c2cc3[nH]c(-c4n[nH]cc4NC(C)=O)nc3cc21 [Example A-1, N-[3-(5-Ethyl-7,7-dimethyl-6-oxo-1,5,6,7-tetrahydro-imidazo[4,5-f]indol-2-yl)-1H-pyrazol-4-yl]-acetamide] | 6.51

Same assay, conditions: HCT 116 human colon carcinoma cells, 5 days incubation, ATP luminescence readout

Row | pIC50 | Structure (SMILES)
15 | 7.20 | CCN1C(=O)C(C)(C)c2cc3[nH]c(-c4n[nH]cc4NC(=O)c4ccc5c(c4)OCCO5)nc3cc21 [Example C-13, 2,3-Dihydro-benzo[1,4]dioxine-6-carboxylic acid[3-(5-ethyl-7,7-dimethyl-6-oxo-1,5,6,7-tetrahydro-imidazo[4,5-f]indol-2-yl)-1H-pyrazol-4-yl]-amide]
